pEC50: −log10 of the molar value.
Tests used:
[1] = test system: HBV DNA in HepG2.2.15 cells; experiment: In vitro cell HBV DNA inhibitory activity in HepG2.2.15 cells; assay type: cell-based; conditions: Hepatitis B virus, 144 h, 6 days treatment, intracellular capsid HBV DNA by qPCR, read-out: EC50, anti-HBV activity in HepG2.2.15 cells
Description: A bottle of HepG2.2.15 (Wuhan Institute of Virology) or HepAD38 cells in good exponential growth state was taken, washed once by adding 5 mL PBS, and then thereto was added 3 mL trypsin. After digesting at room temperature for 5 min, 2 mL trypsin was discarded, and then the sample was placed in a cell culture incubator and digested for 10 min. The cells were taken out and observed under a microscope (whether the cells were individually round and there was no adhesion between the cells). 10 mL complete medium was added to terminate the digestion. After pipetting into a single cell suspension, 10 μL of the cell suspension was taken out for cell counting with a cell counter, and then diluted with a complete medium and adjusted to a cell density of 1*10^5 cells/mL. […]
Compounds dissolved in DMSO were subjected to two-fold gradient dilution (10 concentrations in total) with complete medium. […] After lysing at room temperature for 10 min, DNA was extracted, and HBV DNA in the intracellular viral capsid was measured by real-time fluorescence quantitative PCR. The inhibition rate was calculated based on the Ct value, and the EC50 value was calculated by the four-parameter method.

[2] = Stability of liver microsomes in vitro, mouse; assay type: in vitro ADME
Description: (§1) 300 μL of a final incubation system contains 30 μL of liver microsomes (protein concentration: 0.15 mg/mL, Corning), 30 μL NADPH+MgCl2, 3 μL substrate (formulated with acetonitrile), and 237 μL PBS buffer. Duplicate incubation systems of 0.3 mL each were formulated for each species. A total volume of 270 μL of a uniformly mixed solution of the substrate and the enzyme was formulated in each tube, the solution and NADPH were pre-incubated at 37° C. for 5 minutes, respectively. Then 30 μL of the mixed solution of NADPH+MgCl2 was added for reaction. 50 μL of the reaction solution was taken out at 0, 10, 30, and 60 mins, and the reaction was terminated with 300 μL of ice acetonitrile containing an internal standard.
(§2) Sample pre-treatment: To 50 μL of the incubated sample was added 300 μL of ice acetonitrile containing diazepam as an internal standard and then precipitated. After vortexing for 5 minutes, the sample was centrifugated (12000 rpm, 4° C.) for 10 minutes. 75 μL of the supernatant was pipetted into a 96-well plate, and then diluted with 75 μL ultrapure water and mixed uniformly. 0.5 μL of the resulting solution was injected and analyzed by LC-MS/MS.

[3] = Stability of liver microsomes in vitro, human; assay type: in vitro ADME
Description: as §1, §2

[4] = Stability of liver microsomes in vitro, rat; assay type: in vitro ADME
Description: as §1, §2

[5] = test system: HBV DNA in serum; experiment: pAAV/HBV mouse model; assay type: in vivo, C57BL/6 mice; conditions: 3 mpk intragastric once daily
Description: 6-8 week old male C57BL/6 mice (Shanghai Lingchang Biotechnology Co., Ltd.) were used, and each mouse was injected with purified recombinant plasmid pAAV/HBV1.2 ([…]) dissolved in PBS equivalent to a volume of about 10% of its body weight through the tail vein within 3-8 s. Blood was collected from the orbits of the mice at 3 days after the plasmid injection to detect serum HBV DNA. The model mice having uniform serum DNA were selected and divided into: a model control group, a vehicle control group, and a test substance group. Mice in each group were continuously administered intragastrically once daily for 10 days at a dose of 3 mg/kg. The mouse serum was taken on day 0, 4, 7, and 10 after the administration, and the mice were sacrificed on day 10 to take liver tissue samples. The HBV DNA copy numbers in serum and liver of the mice were detected by fluorescent quantitative PCR method.

## Cc1[nH]c(C(=O)C(=O)N[C@H](C)C(F)(F)F)c(C)c1C(=O)Nc1ccc(F)c(C#N)c1 [Example 2, (R)—N-(3-cyano-4-fluorophenyl)-2,4-dimethyl-5-(2-oxo-2-((1,1,1-trifluoroprop-2-yl)amino)acetyl)-1H-pyrrole-3-carboxamide]
[1]
  pEC50: 7.97
[2]
  Remaining (%) of mouse liver microsomes at 60 min: 100%
[3]
  Remaining (%) of human liver microsomes at 60 min: 100%
[4]
  Remaining (%) of rat liver microsomes at 60 min: 99%
[5]; Day 4
  Reduction levels (log10) of HBV DNA in serum, Day 4: 2.92 log10
[5]; Day 7
  Reduction levels (log10) of HBV DNA in serum, Day 7: 4.09 log10
[5]; Day 10
  Reduction levels (log10) of HBV DNA in serum, Day 10: 2.42 log10
